Laboratory results reported in PubChem BioAssay (NCI).
Where “and” joins values, the source holds several entries; their conditions need not be identical. Equal entries are not always repeated.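 Each compound was tested at five concentrations against cells in 96-well plates for 48 hours. At the GI50, growth is halved. At the TGI there is no net growth.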

Experiments:
Test in all cases: NCI anticancer screen, dose series, 48 h
CAKI-1 renal = test system: CAKI-1 renal
PC-3 prostate = test system: PC-3 prostate
OVCAR-5 ovarian = test system: OVCAR-5 ovarian
OVCAR-8 ovarian = test system: OVCAR-8 ovarian
EKVX NSCLC = test system: EKVX NSCLC
SK-OV-3 ovarian = test system: SK-OV-3 ovarian
RPMI-8226 leukemia = test system: RPMI-8226 leukemia
U251 CNS = test system: U251 CNS
SK-MEL-28 melanoma = test system: SK-MEL-28 melanoma
SF-295 CNS = test system: SF-295 CNS

Compound	GI50 (CAKI-1 renal)	TGI (CAKI-1 renal)	GI50 (PC-3 prostate)	TGI (PC-3 prostate)	GI50 (OVCAR-5 ovarian)	TGI (OVCAR-5 ovarian)	GI50 (OVCAR-8 ovarian)	TGI (OVCAR-8 ovarian)	GI50 (EKVX NSCLC)	TGI (EKVX NSCLC)	GI50 (SK-OV-3 ovarian)	TGI (SK-OV-3 ovarian)	GI50 (RPMI-8226 leukemia)	TGI (RPMI-8226 leukemia)	GI50 (U251 CNS)	TGI (U251 CNS)	GI50 (SK-MEL-28 melanoma)	TGI (SK-MEL-28 melanoma)	GI50 (SF-295 CNS)	TGI (SF-295 CNS)
COC(=O)C1=C(C(=O)ON)[C@@H]2C=C[C@@]1([C@@H](Cc1ccccc1)Nc1ccccc1)O2	1.61 µM	2.96 µM	1.84 µM	3.74 µM	15.6 µM	31 µM	14.4 µM	27.9 µM	1.83 µM	4.16 µM	15.6 µM	29.2 µM	2.13 µM	5.32 µM	14.3 µM	27.6 µM	1.93 µM	3.54 µM	15.1 µM	28.8 µM
CN[C@@H](Cc1cccc2ccccc12)C(=O)N[C@@H](CC(C)C)B(O)O	–	0.0272 µM and < 0.0131 µM	0.0391 µM	0.154 µM and 0.031 µM	0.0187 µM	0.0518 µM and 0.0204 µM	0.0259 µM	0.0844 µM	0.0277 µM	0.209 µM and 0.0476 µM	0.0944 µM	> 100 µM	0.00547 µM	0.0439 µM	0.0303 µM	0.119 µM and 0.0438 µM	0.0119 µM	0.0271 µM	0.0231 µM	0.0828 µM and 0.0156 µM
S=C1SCN(Cc2ccccc2)CN1Cc1ccccc1	7.19 µM	20.9 µM	3.36 µM	15.6 µM	25.7 µM	> 60.5 µM	21.6 µM	90 µM	21.2 µM	> 57.8 µM	98.7 µM	> 100 µM	0.119 µM	0.415 µM	5.61 µM	16.4 µM	5.27 µM	17.9 µM	24.4 µM	> 90 µM
CCc1cccc(NC(=O)Nc2ccc(Oc3ccc4nc(NC(=O)OC)[nH]c4c3)cc2)c1	> 15.4 µM	> 25 µM	4.9 µM	19.6 µM	15 µM	> 25 µM	5.79 µM	> 18.8 µM	> 23.9 µM	> 25 µM	4.99 µM	11.5 µM	12.5 µM	> 25 µM	4.85 µM	> 15.4 µM	3.52 µM	9.49 µM	3.4 µM	> 20.4 µM
COc1ccc2nc3c(cc2c1)C(=O)CC(c1ccccc1)C3 (configuration not stated)	0.552 µM	> 100 µM	0.901 µM	> 100 µM	6.83 µM	> 100 µM	0.934 µM	> 100 µM	5.81 µM	> 100 µM	2.09 µM	> 100 µM	3.65 µM	> 100 µM	5.81 µM	> 100 µM	4.09 µM	> 100 µM	0.905 µM	11 µM
CC1(C)CCc2c(c(N=Nc3ccccc3F)c3ccccc3c2O)O1	31.6 µM	> 100 µM	59.8 µM	> 100 µM	73.7 µM	> 100 µM	23.3 µM	51.4 µM	> 100 µM	> 100 µM	25.7 µM	75.9 µM	> 100 µM	> 100 µM	19.4 µM	37 µM	> 100 µM	> 100 µM	17.8 µM	44 µM
Cc1cc(=O)oc2cc3oc(N(C)c4ccccc4)nc(=O)c3cc12	–	> 100 µM	–	> 100 µM	–	> 100 µM	–	> 100 µM	–	> 100 µM	–	> 100 µM	–	> 100 µM	–	> 100 µM	–	> 100 µM	–	> 100 µM
COc1cc2c(c(OC)c1OC)-c1c(c3ccc([N+](=O)[O-])cc3c(=O)n1CCCBr)C2=O	13.4 µM	61.3 µM	26.3 µM	> 100 µM	> 100 µM	> 100 µM	49.8 µM	> 100 µM	> 100 µM	> 100 µM	> 100 µM	> 100 µM	35 µM	> 100 µM	24.4 µM	> 100 µM	> 100 µM	> 100 µM	24.2 µM	> 100 µM
C#CCOC(=O)/C=C/C(=O)Oc1ccc2c(C)cc(=O)oc2c1	> 100 µM	> 100 µM	> 100 µM	> 100 µM	> 100 µM	> 100 µM	> 100 µM	> 100 µM	> 100 µM	> 100 µM	> 100 µM	> 100 µM	> 100 µM	> 100 µM	> 100 µM	> 100 µM	> 100 µM	> 100 µM	> 100 µM	> 100 µM
FC(F)(F)c1cc(NC(=S)N2c3ccccc3-n3cccc3C2c2cccnc2)cc(C(F)(F)F)c1 (configuration not stated)	5.36 µM	21.7 µM	–	16.7 µM	22 µM	59.2 µM	4.65 µM	15.3 µM	9.67 µM	37.8 µM	11.9 µM	27.5 µM	3.84 µM	18.7 µM	4.2 µM	14.8 µM	15.7 µM	37.1 µM	5.52 µM	21.1 µM
O=S(=O)(O)n1ccnc1 (tested in a mixture with another compound)	–	> 100 µM	–	> 100 µM	–	> 100 µM	–	> 100 µM	–	> 100 µM	–	> 100 µM	–	> 100 µM	–	> 100 µM	–	> 100 µM	–	> 100 µM
O=C(Nc1ccccc1Cl)c1ccc(NC2=C(Cl)C(=O)N(C3CCCCC3)C2=O)cc1	22.9 µM	56.5 µM	13.6 µM	45.5 µM	49.5 µM	128 µM	2.99 µM	18.5 µM	24.3 µM	53.1 µM	27.1 µM	65.2 µM	7.35 µM	34.2 µM	3 µM	19.4 µM	17.6 µM	49.6 µM	26.4 µM	68.1 µM
Fc1ccc(-c2ncn(CCCN3CCOCC3)c2-c2ccncc2)cc1	> 25 µM	> 25 µM	> 25 µM	> 25 µM	> 25 µM	> 25 µM	> 25 µM	> 25 µM	> 25 µM	> 25 µM	> 25 µM	> 25 µM	> 25 µM	> 25 µM	> 25 µM	> 25 µM	> 25 µM	> 25 µM	> 25 µM	> 25 µM
CC(C)=Cc1cccc2[nH]c(O)c(N=Nc3ccc(S(N)(=O)=O)cc3)c12	1.69 µM	> 25 µM	6.2 µM	> 25 µM	> 25 µM	> 25 µM	5 µM	> 25 µM	> 25 µM	> 25 µM	14.5 µM	> 25 µM	8.16 µM	> 25 µM	4.24 µM	> 25 µM	> 25 µM	> 25 µM	3.4 µM	> 25 µM
CC(=O)Nc1ccc(OC(C)=O)cc1	0.084 µM	28.8 µM	< 0.01 µM	> 66.3 µM	< 0.01 µM	> 100 µM	< 0.01 µM	> 49.1 µM	3 µM	> 78.7 µM	< 0.01 µM	–	< 0.01 µM	9.64 µM	< 0.01 µM	> 37.7 µM	< 0.01 µM	48 µM	< 0.01 µM	12.4 µM
